Converted amounts (≈) assume the structure as drawn.
Legend:
Assay in all cases: Antibacterial effectiveness in agar
Format in all cases: cell-based
[1] = test system: Proteus mirabilis T318; settings: in agar; Proteus mirabilis T318; read-out: M.I.C.
Source text: (§1) b. Antibacterial effectiveness of the compound of […]

[2] = test system: Bacteroides fragilis BC16; settings: in agar; Bacteroides fragilis BC16; read-out: M.I.C.
Source text: as §1

[3] = test system: Bacteroides fragilis BC4; settings: in agar; Bacteroides fragilis BC4; read-out: M.I.C.
Source text: as §1

[4] = test system: Staphylococcus aureus ATCC 25923; settings: ATCC25923; in agar; Staphylococcus aureus ATCC 25923; read-out: M.I.C.
Source text: as §1

[5] = test system: Escherichia coli NCTC 15418; settings: NCTC15418; in agar; Escherichia coli NCTC 15418; read-out: M.I.C.
Source text: as §1

[6] = test system: Escherichia coli JT1; settings: in agar; Escherichia coli JT1; read-out: M.I.C.
Source text: as §1

[7] = test system: Bacteroides fragilis WS1; settings: in agar; Bacteroides fragilis WS1; read-out: M.I.C.
Source text: as §1

[8] = test system: Staphylococcus aureus T67+; settings: in agar; Staphylococcus aureus T67+; read-out: M.I.C.
Source text: as §1

[9] = test system: Escherichia coli JT20R+
Source text: as §1

[10] = test system: Staphylococcus aureus Smith; settings: in agar; Staphylococcus aureus Smith; read-out: M.I.C.
Source text: as §1

[11] = test system: Bacteroides fragilis VP1 8249; settings: VP18249; in agar; Bacteroides fragilis VP1 8249; read-out: M.I.C.
Source text: as §1

[12] = test system: Pseudomonas aeruginosa W975; settings: in agar; Pseudomonas aeruginosa W975; read-out: M.I.C.
Source text: as §1

[13] = test system: Citrobacter freundii T221; settings: in agar; Citrobacter freundii T221; read-out: M.I.C.
Source text: as §1

[14] = test system: Pseudomonas aeruginosa Dalgleish; settings: in agar; Pseudomonas aeruginosa Dalgleish; read-out: M.I.C.
Source text: as §1

[15] = test system: Proteus rettgeri R110; settings: Providencia rettgeri; in agar; Proteus rettgeri R110; read-out: M.I.C.
Source text: as §1

[16] = test system: Proteus mirabilis 889; settings: in agar; Proteus mirabilis 889; read-out: M.I.C.
Source text: as §1

[17] = test system: Proteus rettgeri I; settings: Providencia rettgeri; in agar; Proteus rettgeri I; read-out: M.I.C.
Source text: as §1

[18] = test system: Enterbacter aerogenes NCTC 10006; settings: in agar; Enterbacter aerogenes NCTC 10006; read-out: M.I.C.
Source text: as §1

[19] = test system: Proteus morganii T361; settings: Morganella morganii; in agar; Proteus morganii T361; read-out: M.I.C.
Source text: as §1

[20] = test system: Escherichia coli JT414C+; settings: in agar; Escherichia coli JT414C+; read-out: M.I.C.
Source text: as §1

[21] = test system: Staphylococcus aureus ME9+; settings: in agar; Staphylococcus aureus ME9+; read-out: M.I.C.
Source text: as §1

[22] = test system: Klebsiella aerogenes I281; settings: in agar; Klebsiella aerogenes I281; read-out: M.I.C.
Source text: as §1

[23] = test system: Bacteroides fragilis 2118; settings: in agar; Bacteroides fragilis 2118; read-out: M.I.C.
Source text: as §1

[24] = test system: Citrobacter freundii W18; settings: in agar; Citrobacter freundii W18; read-out: M.I.C.
Source text: as §1

[25] = test system: Escherichia coli 5; settings: in agar; Escherichia coli 5; read-out: M.I.C.
Source text: as §1

[26] = test system: Bacteroides fragilis WS12; settings: in agar; Bacteroides fragilis WS12; read-out: M.I.C.
Source text: as §1

[27] = test system: Klebsiella aerogenes Va2R+; settings: in agar; Klebsiella aerogenes Va2R+; read-out: M.I.C.
Source text: as §1

[28] = test system: Proteus vulgaris X; settings: in agar; Proteus vulgaris X; read-out: M.I.C.
Source text: as §1

[29] = test system: Pseudomonas aeruginosa NCTC 10662; settings: NCTC10662; in agar; Pseudomonas aeruginosa NCTC 10662; read-out: M.I.C.
Source text: as §1

[30] = test system: Proteus vulgaris NCTC 4395; settings: NCTC4395; in agar; Proteus vulgaris NCTC 4395; read-out: M.I.C.
Source text: as §1

[31] = test system: Klebsiella aerogenes T219; settings: in agar; Klebsiella aerogenes T219; read-out: M.I.C.
Source text: as §1

[32] = test system: Escherichia coli E96R+
Source text: as §1

[33] = test system: Escherichia coli JT425C+; settings: in agar; Escherichia coli JT425C+; read-out: M.I.C.
Source text: as §1

[34] = test system: Bacteroides fragilis B3; settings: in agar; Bacteroides fragilis B3; read-out: M.I.C.
Source text: as §1

[35] = test system: Streptococcus faecalis T1101; settings: Enterococcus faecalis; in agar; Streptococcus faecalis T1101; read-out: M.I.C.
Source text: as §1

[36] = test system: Escherichia coli E8; settings: in agar; Escherichia coli E8; read-out: M.I.C.
Source text: as §1

Q: What does the source list for `CC(=O)N/C=C/SC1=C(C(=O)O)N2C(=O)[C@@H]([C@H](C)OS(=O)(=O)O)[C@H]2C1` [MM 13902, reference compound]?
A: MIC [1]: ≤ 0.1 µg/mL; MIC [2]: 1.6 µg/mL (≈ 4.08 µM); MIC [3]: 1.6 µg/mL (≈ 4.08 µM); MIC [4]: 1.6 µg/mL (≈ 4.08 µM); MIC [5]: ≤ 0.1 µg/mL; MIC [6]: ≤ 0.1 µg/mL; MIC [7]: 6.2 µg/mL (≈ 15.8 µM); MIC [8]: 0.8 µg/mL (≈ 2.04 µM); MIC [9]: 1.6 µg/mL (≈ 4.08 µM); MIC [10]: 1.6 µg/mL (≈ 4.08 µM); MIC [11]: 0.2 µg/mL (≈ 0.51 µM); MIC [12]: 50 µg/mL (≈ 127 µM); MIC [13]: 6.2 µg/mL (≈ 15.8 µM); MIC [14]: 50 µg/mL (≈ 127 µM); MIC [15]: 0.2 µg/mL (≈ 0.51 µM); MIC [16]: 0.2 µg/mL (≈ 0.51 µM); MIC [17]: 0.2 µg/mL (≈ 0.51 µM); MIC [18]: 0.4 µg/mL (≈ 1.02 µM); MIC [19]: 0.2 µg/mL (≈ 0.51 µM); MIC [20]: 0.4 µg/mL (≈ 1.02 µM); MIC [21]: 3.1 µg/mL (≈ 7.9 µM); MIC [22]: 0.2 µg/mL (≈ 0.51 µM); MIC [23]: 0.2 µg/mL (≈ 0.51 µM); MIC [24]: 6.2 µg/mL (≈ 15.8 µM); MIC [25]: ≤ 0.1 µg/mL; MIC [26]: 0.2 µg/mL (≈ 0.51 µM); MIC [27]: 6.2 µg/mL (≈ 15.8 µM); MIC [28]: 0.4 µg/mL (≈ 1.02 µM); MIC [29]: 25 µg/mL (≈ 63.7 µM); MIC [30]: 0.1 µg/mL (≈ 0.255 µM); MIC [31]: ≤ 0.1 µg/mL; MIC [32]: 0.2 µg/mL (≈ 0.51 µM); MIC [33]: 0.8 µg/mL (≈ 2.04 µM); MIC [34]: 0.4 µg/mL (≈ 1.02 µM); MIC [35]: 6.2 µg/mL (≈ 15.8 µM); MIC [36]: ≤ 0.1 µg/mL
